From ChEMBL document CHEMBL4138237, “Activation of anti-oxidant Nrf2 signaling by enone analogues of curcumin” (Eur J Med Chem, 2018)
Active and inactive are the calls of the source.

How the values were obtained:
[1] = molecular target: Luciferin 4-monooxygenase (Photinus pyralis, UniProt P08659); assay: Effect on firefly luciferase activity expressed in human HepG2 cells at low concentration after 5 hrs by luminescence assay; format: ADME, cell-based; details: hepg2, 5 h
[2] = molecular target: T1, Nuclear factor erythroid 2-related factor 2 (Homo sapiens) (UniProt Q16236); assay: Activation of Nrf2 (unknown origin) expressed in human HepG2 cells at 15 uM after 5 hrs by ARE-driven luciferase reporter gene assay relative to control; format: cell-based
T1 sequence (whole entry): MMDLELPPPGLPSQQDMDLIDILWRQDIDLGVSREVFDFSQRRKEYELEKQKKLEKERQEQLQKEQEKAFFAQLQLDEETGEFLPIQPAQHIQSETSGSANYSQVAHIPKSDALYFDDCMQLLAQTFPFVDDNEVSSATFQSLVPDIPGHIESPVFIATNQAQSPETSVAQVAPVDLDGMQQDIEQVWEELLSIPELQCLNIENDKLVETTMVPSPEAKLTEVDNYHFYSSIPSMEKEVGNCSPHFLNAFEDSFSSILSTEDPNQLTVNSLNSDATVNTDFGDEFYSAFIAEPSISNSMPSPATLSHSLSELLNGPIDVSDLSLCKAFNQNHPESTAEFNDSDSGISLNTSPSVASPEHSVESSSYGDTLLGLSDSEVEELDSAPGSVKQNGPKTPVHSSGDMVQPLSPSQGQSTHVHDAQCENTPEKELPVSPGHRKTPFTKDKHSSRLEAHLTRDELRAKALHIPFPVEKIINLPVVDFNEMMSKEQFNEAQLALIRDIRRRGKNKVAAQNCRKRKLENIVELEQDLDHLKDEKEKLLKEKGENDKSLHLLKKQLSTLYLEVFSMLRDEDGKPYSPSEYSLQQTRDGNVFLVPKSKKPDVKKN

Chain of Luciferin 4-monooxygenase (P08659 whole entry): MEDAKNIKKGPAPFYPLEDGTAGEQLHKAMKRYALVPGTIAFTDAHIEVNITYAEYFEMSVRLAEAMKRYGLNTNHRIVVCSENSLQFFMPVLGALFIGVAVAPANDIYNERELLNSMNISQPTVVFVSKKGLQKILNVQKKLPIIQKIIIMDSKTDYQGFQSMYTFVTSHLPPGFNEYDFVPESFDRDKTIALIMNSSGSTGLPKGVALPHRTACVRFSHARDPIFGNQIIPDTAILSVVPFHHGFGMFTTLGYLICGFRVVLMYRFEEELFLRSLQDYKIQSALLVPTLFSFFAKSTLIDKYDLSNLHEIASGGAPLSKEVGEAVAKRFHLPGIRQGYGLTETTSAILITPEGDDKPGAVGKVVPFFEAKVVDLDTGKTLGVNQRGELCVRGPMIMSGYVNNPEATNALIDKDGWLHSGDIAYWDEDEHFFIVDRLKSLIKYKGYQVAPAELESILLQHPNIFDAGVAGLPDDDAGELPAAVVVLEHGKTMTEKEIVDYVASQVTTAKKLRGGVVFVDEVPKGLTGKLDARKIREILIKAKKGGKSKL

Row | Activity [2] | fold change (FC) [2] | Structure (SMILES) | Activity [1]
1 |  |  | COc1ccc(/C=C/C(=O)CC(=O)/C=C/c2ccc(OC)c(OC)c2)cc1OC [TETRAMETHOXYCURCUMIN] | Non-Toxic
2 | Active |  | O=C(/C=C/c1ccc(O)cc1)CC(=O)/C=C/c1ccc(O)cc1 [BISDEMETHOXYCURCUMIN] | Non-Toxic
3 | Active |  | COc1cc(/C=C/C(=O)CC(=O)/C=C/c2cc(OC)cc(OC)c2)cc(OC)c1 | Non-Toxic
4 | Active |  | CC(C)c1ccc(/C=C2\CN(C)C/C(=C\c3ccc(C(C)C)cc3)C2=O)cc1 | Non-Toxic
5 | inactive |  | O=C(/C=C/c1ccccc1C(F)(F)F)/C=C/c1ccccc1C(F)(F)F | Non-Toxic
6 |  |  | COc1cccc(/C=C/C(=O)/C=C/c2cccc(OC)c2OC)c1OC | Non-Toxic
7 | Active |  | CCc1c(/C=C/C(=O)/C=C/c2ccc(OC)c(OC)c2CC)ccc(OC)c1OC | Non-Toxic
8 |  | 22.1 | COc1cc(/C=C2\CCC/C(=C\c3cc(OC)cc(OC)c3)C2=O)cc(OC)c1 | Non-Toxic
9 |  | 25.1 | COc1cc(/C=C/C(=O)/C=C/c2ccc(O)c(OC)c2)ccc1O | Non-Toxic
10 |  | 29.9 | Cc1ccc(C(=O)/C=C/c2ccccc2)c(C)c1 | Non-Toxic
11 |  |  | COc1ccc(/C=C/C(C)=O)cc1 | Non-Toxic
12 |  |  | COc1ccc(/C=C2\CN(C)C/C(=C\c3ccc(OC)cc3OC)C2=O)c(OC)c1 | Non-Toxic
13 | Active |  | O=C(/C=C/c1ccccc1)/C=C/c1ccccc1 | Non-Toxic
14 |  |  | COc1ccc(/C=C/C(=O)/C=C/c2ccc(OC)c(O)c2)cc1O | Non-Toxic
15 |  |  | COc1cccc(/C=C2\CN(C)C/C(=C\c3cccc(OC)c3OC)C2=O)c1OC | Non-Toxic
16 |  |  | COc1cc(/C=C/C(=O)/C=C/c2ccccc2)ccc1O | Non-Toxic
17 | Active |  | COc1ccc(/C=C/C(=O)CC(=O)/C=C/c2ccc(OC)cc2OC)c(OC)c1 | Non-Toxic
18 | inactive |  | CN(C)c1ccc(/C=C/C(=O)CC(=O)/C=C/c2ccc(N(C)C)cc2)cc1 | Non-Toxic
19 | Active |  | O=C(O)c1ccc(/C=C/C(=O)c2ccccc2)cc1 | Non-Toxic
20 |  |  | COc1cc(/C=C2\CN(C)C/C(=C\c3cc(OC)cc(OC)c3)C2=O)cc(OC)c1 | Non-Toxic
21 |  |  | COc1ccccc1/C=C/C(=O)CC(=O)/C=C/c1ccccc1OC | Non-Toxic
22 |  |  | O=C(/C=C/c1cccc(O)c1)/C=C/c1cccc(O)c1 | Non-Toxic
23 |  |  | COc1cc(/C=C2\CCC/C(=C\c3cc(OC)c(OC)c(OC)c3)C2=O)cc(OC)c1OC | Non-Toxic
24 |  |  | COc1ccc(/C=C/C(=O)/C=C/c2ccc(OC)c(OC)c2)cc1OC | Non-Toxic
25 | inactive |  | O=C(/C=C/c1ccc(Cl)cc1)/C=C/c1ccc(Cl)cc1 | Non-Toxic
26 | Active |  | CN1C/C(=C\c2cccc(C(F)(F)F)c2)C(=O)/C(=C/c2cccc(C(F)(F)F)c2)C1 | Non-Toxic

Row | Activity [2] | fold change (FC) [2] | Structure (SMILES) | Activity [1]
27 |  |  | COc1cc(/C=C/C(=O)/C=C/c2cc(OC)cc(OC)c2)cc(OC)c1 | Non-Toxic
28 | inactive |  | O=C(CCc1ccccc1)CCc1ccccc1 | Non-Toxic
29 |  |  | CC(=O)/C=C/c1ccccc1O | Non-Toxic
30 |  |  | COc1cccc(/C=C2\CCC/C(=C\c3cccc(OC)c3OC)C2=O)c1OC | Non-Toxic
31 | Active |  | COc1ccc(/C=C/C(=O)CC(=O)/C=C/c2ccc(OC)c(O)c2)cc1O | Non-Toxic
32 |  | 22.6 | COc1cc(/C=C/C(=O)CC(=O)/C=C/c2ccc(O)c(OC)c2)ccc1O [CURCUMIN] | Non-Toxic
33 |  |  | CCOc1ccc(/C=C2\CN(C)C/C(=C\c3ccc(OCC)cc3)C2=O)cc1 | Non-Toxic
34 |  |  | O=C(O)c1ccc(C(=O)/C=C/c2ccccc2)cc1 | Non-Toxic
35 | Active |  | O=C(/C=C/c1ccccc1)C(Cc1ccccc1)(Cc1ccccc1)C(=O)/C=C/c1ccccc1 | Non-Toxic
36 |  |  | N#Cc1ccc(C(=O)/C=C/c2ccccc2)cc1 | Non-Toxic
37 | Active |  | Cc1cccc(/C=C2\CN(C)C/C(=C\c3cccc(C)c3)C2=O)c1 | Non-Toxic
38 | inactive |  | CN(C)c1ccc(/C=C/C(=O)/C=C/c2ccc(N(C)C)cc2)cc1 | Non-Toxic
39 |  |  | CSc1ccc(/C=C2\CN(C)C/C(=C\c3ccc(SC)cc3)C2=O)cc1 | Non-Toxic
40 | inactive |  | Cc1ccc(/C=C/C(=O)CC(=O)/C=C/c2ccc(C)cc2)cc1 | Non-Toxic
41 |  |  | COc1cc(CCC(=O)C(Cc2ccccc2)C(=O)CCc2ccc(O)c(OC)c2)ccc1O | Non-Toxic
42 | Active |  | O=C1/C(=C/c2c(Cl)cccc2Cl)CCC/C1=C\c1c(Cl)cccc1Cl | Non-Toxic
43 |  |  | CC(C(=O)CCc1ccccc1)C(=O)CCc1ccccc1 | Non-Toxic
44 |  |  | COc1ccc(/C=C/C(=O)/C=C/c2ccccc2)cc1 | Non-Toxic
45 | inactive |  | O=C(/C=C/c1cccc([N+](=O)[O-])c1)CC(=O)/C=C/c1cccc([N+](=O)[O-])c1 | Non-Toxic
46 |  |  | COc1cc(/C=C2\CCC/C(=C\c3ccc(O)c(OC)c3)C2=O)ccc1O [CYCLOVALONE] | Non-Toxic
47 |  |  | COc1ccc(/C=C/C(=O)/C=C/c2ccc(OC)cc2OC)c(OC)c1 | Non-Toxic
48 | Active |  | COc1cc(/C=C/C(=O)c2ccc(O)c(OC)c2)ccc1O | Non-Toxic
49 |  |  | O=C(/C=C(\O)c1ccccc1)c1ccccc1 | Non-Toxic
50 |  |  | O=C1/C(=C/c2cccc(F)c2)CCC/C1=C\c1cccc(F)c1 | Non-Toxic
51 |  |  | COc1cc(/C=C/C(=O)/C=C/c2ccc(OC(C)=O)c(OC)c2)ccc1OC(C)=O | Non-Toxic
52 | inactive |  | O=C(/C=C/c1ccc(Br)cc1)CC(=O)/C=C/c1ccc(Br)cc1 | Non-Toxic

Row | Activity [2] | fold change (FC) [2] | Structure (SMILES) | Activity [1]
53 |  |  | COc1cccc(/C=C2\CN(C)C/C(=C\c3cccc(OC)c3)C2=O)c1 | Non-Toxic
54 |  | 18.5 | O=C(/C=C/c1ccccc1O)/C=C/c1ccccc1O | Non-Toxic
55 | Active |  | COc1cc(C(=O)/C=C/c2ccccc2)ccc1O | Non-Toxic
56 |  |  | O=C1/C(=C/c2cccc(O)c2)CCC/C1=C\c1cccc(O)c1 | Non-Toxic
57 | inactive |  | COc1ccccc1/C=C1\CCC/C(=C\c2ccccc2OC)C1=O | Non-Toxic
58 | inactive |  | COc1ccc(/C=C2\CCC/C(=C\c3ccc(OC)cc3OC)C2=O)c(OC)c1 | Non-Toxic
59 |  |  | O=C1/C(=C/c2ccc(Br)cc2)CCC/C1=C\c1ccc(Br)cc1 | Non-Toxic
60 |  |  | O=C(CCc1ccccc1)C(Cc1ccccc1)C(=O)CCc1ccccc1 | Non-Toxic
61 | Active |  | COc1ccc(OC)c(/C=C/C(=O)CC(=O)/C=C/c2cc(OC)ccc2OC)c1 | Non-Toxic
62 |  |  | COc1cccc(/C=C/C(=O)CC(=O)/C=C/c2cccc(OC)c2OC)c1OC | Non-Toxic
63 |  |  | COc1ccccc1/C=C/C(=O)/C=C/c1ccccc1OC | Non-Toxic
64 | inactive |  | COc1cc(/C=C2\CN(C)C/C(=C\c3cc(OC)c(OC)c(OC)c3)C2=O)cc(OC)c1OC | Non-Toxic
65 | inactive |  | O=C(/C=C/c1ccc(Br)cc1)/C=C/c1ccc(Br)cc1 | Non-Toxic
66 | Active |  | O=C(/C=C/c1ccccc1)c1ccccc1 [CHALCONE] | Non-Toxic
67 | inactive |  | O=C(/C=C/c1cccc(Cl)c1)/C=C/c1cccc(Cl)c1 | Non-Toxic
68 | Active |  | COc1ccc(/C=C/C(=O)CC(=O)/C=C/c2ccc(OC)cc2)cc1 | Non-Toxic
69 | inactive |  | O=C(/C=C/c1c(Cl)cccc1Cl)/C=C/c1c(Cl)cccc1Cl | Non-Toxic
70 |  |  | COc1ccc(/C=C2\CCC/C(=C\c3ccc(OC)c(OC)c3OC)C2=O)c(OC)c1OC | Non-Toxic
71 |  |  | COc1ccc(/C=C2\CCC/C(=C\c3ccc(OC)c(OC)c3)C2=O)cc1OC | Non-Toxic
72 |  |  | COc1cccc(OC)c1/C=C/C(=O)/C=C/c1c(OC)cccc1OC | Non-Toxic
73 |  |  | COc1ccc(/C=C2\CN(C)C/C(=C\c3ccc(OC)c(OC)c3OC)C2=O)c(OC)c1OC | Non-Toxic
74 |  |  | O=C(/C=C/c1ccccc1)/C(Cc1ccccc1)=C(O)/C=C/c1ccccc1 | Non-Toxic
75 |  |  | COc1ccc(OC)c(/C=C2\CCC/C(=C\c3cc(OC)ccc3OC)C2=O)c1 | Non-Toxic
76 |  |  | C/C(C(=O)/C=C/c1ccccc1)=C(O)\C=C\c1ccccc1 | Non-Toxic
77 |  |  | CC(=O)Oc1ccc(/C=C/C(=O)/C=C/c2ccc(OC(C)=O)cc2)cc1 | Non-Toxic
78 |  |  | COc1ccc(/C=C2\CN(C)C/C(=C\c3ccc(OC)cc3)C2=O)cc1 | Non-Toxic
